Experimental data: paper PMC8129716 (CPT: Pharmacometrics & Systems Pharmacology, 2021)

Columns and labels:
[1] = test system: CYP3A; conditions: cited from earlier work
[2] = biological target: CYP2D6 (Homo sapiens, UniProt P10635); assay: reversible competitive CYP inhibition; assay type: in vitro ADME; conditions: read-out: Ki CYP2D6; Ki=IC50/2
[3] = biological target: T1, OATP1B1 (Homo sapiens, UniProt Q9Y6L6); assay: transporter substrate/inhibitor assessment; assay type: in vitro ADME
T1 sequence (Q9Y6L6 1-691): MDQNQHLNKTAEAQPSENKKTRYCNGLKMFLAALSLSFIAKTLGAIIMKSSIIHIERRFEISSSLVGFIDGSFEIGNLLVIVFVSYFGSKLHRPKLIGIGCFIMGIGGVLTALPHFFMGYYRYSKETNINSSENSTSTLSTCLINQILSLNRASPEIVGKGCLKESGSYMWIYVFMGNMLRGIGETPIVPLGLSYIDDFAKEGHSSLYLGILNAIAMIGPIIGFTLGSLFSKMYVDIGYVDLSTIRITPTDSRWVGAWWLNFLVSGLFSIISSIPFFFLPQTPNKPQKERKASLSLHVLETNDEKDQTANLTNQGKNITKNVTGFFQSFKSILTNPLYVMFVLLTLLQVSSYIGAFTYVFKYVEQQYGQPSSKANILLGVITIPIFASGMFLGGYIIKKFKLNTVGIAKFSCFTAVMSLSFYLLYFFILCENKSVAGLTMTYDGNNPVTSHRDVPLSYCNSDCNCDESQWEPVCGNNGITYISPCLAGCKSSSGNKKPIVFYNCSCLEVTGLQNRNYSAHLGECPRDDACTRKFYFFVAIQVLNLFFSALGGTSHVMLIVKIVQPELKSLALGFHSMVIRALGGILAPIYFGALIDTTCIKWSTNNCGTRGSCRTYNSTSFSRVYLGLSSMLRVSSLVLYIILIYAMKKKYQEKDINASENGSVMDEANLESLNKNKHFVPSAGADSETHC

[4] = test system: CYP2C8; assay: CYP2C8 induction in vitro; assay type: in vitro ADME, human
[5] = human liver microsome intrinsic clearance; assay type: in vitro ADME; conditions: liver microsomes
[6] = fraction of unbound drug in plasma; assay type: in vitro ADME
[7] = oral, patients with B-cell malignancies; cited from earlier work
[8] = pKa; assay type: physicochemical
[9] = biological target: T2, OAT3 (Homo sapiens, UniProt Q8TCC7); assay: transporter substrate/inhibitor assessment; assay type: in vitro ADME
T2 sequence (Q8TCC7 1-542): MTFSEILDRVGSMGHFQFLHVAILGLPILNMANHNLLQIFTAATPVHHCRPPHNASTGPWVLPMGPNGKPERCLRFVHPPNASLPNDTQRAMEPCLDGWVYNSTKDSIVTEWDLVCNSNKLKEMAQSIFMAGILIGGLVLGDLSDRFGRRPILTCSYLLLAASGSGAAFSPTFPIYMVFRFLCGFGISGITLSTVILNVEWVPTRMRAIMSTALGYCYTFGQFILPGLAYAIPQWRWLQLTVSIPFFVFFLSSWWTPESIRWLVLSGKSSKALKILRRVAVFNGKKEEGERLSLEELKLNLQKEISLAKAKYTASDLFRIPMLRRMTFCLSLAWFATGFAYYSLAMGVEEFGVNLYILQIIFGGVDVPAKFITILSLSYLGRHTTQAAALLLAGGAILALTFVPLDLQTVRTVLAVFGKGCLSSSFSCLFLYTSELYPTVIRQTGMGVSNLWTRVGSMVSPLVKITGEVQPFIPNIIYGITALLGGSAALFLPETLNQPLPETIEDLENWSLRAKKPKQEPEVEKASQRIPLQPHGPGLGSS

Sequence of CYP2D6 (P10635 whole entry): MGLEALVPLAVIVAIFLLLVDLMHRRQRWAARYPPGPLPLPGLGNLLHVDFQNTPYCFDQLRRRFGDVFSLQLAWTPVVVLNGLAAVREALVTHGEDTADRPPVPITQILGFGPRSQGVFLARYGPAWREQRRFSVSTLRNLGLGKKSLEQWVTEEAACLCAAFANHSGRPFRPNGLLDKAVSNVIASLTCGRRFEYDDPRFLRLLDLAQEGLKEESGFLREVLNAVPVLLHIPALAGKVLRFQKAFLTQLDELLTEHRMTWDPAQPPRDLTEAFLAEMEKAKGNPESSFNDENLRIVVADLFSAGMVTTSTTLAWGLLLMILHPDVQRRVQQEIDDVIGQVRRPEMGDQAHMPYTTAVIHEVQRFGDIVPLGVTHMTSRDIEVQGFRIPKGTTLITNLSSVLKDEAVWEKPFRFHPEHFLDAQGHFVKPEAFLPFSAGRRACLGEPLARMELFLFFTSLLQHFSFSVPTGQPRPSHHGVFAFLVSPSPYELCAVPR

C=CC(=O)N1CCC([C@@H]2CCNc3c(C(N)=O)c(-c4ccc(Oc5ccccc5)cc4)nn32)CC1 [zanubrutinib, Zanubrutinib]
CYP3A induction in vivo ([1]; clinical study BGB-3111-108 with midazolam): weak CYP3A inducer
mean reduction of systemic exposure of CYP3A and CYP2C19 substrates ([1]; zanubrutinib 320 mg total daily dose): < 50%
Ki [2]: 36.5 µM
substrate or inhibitor of OATP1B1 [3]: not a substrate or inhibitor
microsomal CLint [5]: 109 µL/min/mg
fraction unbound [6]: 0.0582
mean apparent terminal elimination half-life [7]: 2 to 4 h
pKa [8]: 3.3
substrate or inhibitor of OAT3 [9]: not a substrate or inhibitor
